Literature values in paper PMC7751758, “Repurposing Sigma-1 Receptor Ligands for COVID-19 Therapy?” (Frontiers in Pharmacology, 2020).
“And” between values parts separate entries of the source, which are not always exact repeats. Equal entries are not always repeated. “Also recorded” adds a separate entry of the source.

Columns and labels:
[1] = system: HCV; conditions: entry and assembly steps in Huh-7.5.1 cells, ref Cheng et al., 2013
[2] = system: SARS-CoV
[3] = system: EBOV; conditions: mouse, in vivo
[4] = system: SARS-CoV-2 in Huh-7 cells; conditions: for antiviral potency: devoid of cytotoxicity, ref Mirabelli et al., 2020
[5] = system: COVID-19; conditions: for decreasing the likelihood of death or speeding recovery: large, randomized clinical trial in hospitalized patients, ref FDA communication
[6] = system: Ebola; conditions: in vivo
[7] = system: Ebola virus (EBOV)
[8] = target: Sigma-1 receptor; conditions: for IC50: read-out: Sigma-1 receptor affinity IC50; for Ki: read-out: Sigma-1 receptor affinity Ki
[9] = system: HCV-induced cytopathic effect on the engineered cell line n4mBid; conditions: leads of the cell protection screen; ref Chockalingam et al., 2010
[10] = system: H5N1 virus in A549 lung epithelial cells
[11] = system: H5N1 virus; conditions: mouse, in vivo
[12] = system: MERS-CoV
[13] = system: CHIKV; conditions: cytopathic effect induced by Chikungunya virus and other alphaviruses (Semliki Forest virus and Sindbis virus), ref Pohjala et al., 2011, listed as chloroquine
[14] = system: HCoV-229E; conditions: replication in cell culture, ref de Wilde et al., 2014, listed as chloroquine
[15] = system: HCoV-OC43; conditions: replication in HRT-18 cells, ref Keyaerts et al., 2009
[16] = system: EBOV; conditions: guinea pig, in vivo
[17] = system: HCoV-OC43; conditions: mothers treated daily with chloroquine (15 mg/kg); ref Keyaerts et al., 2009
[18] = associated with bioaccumulation of the drugs; ref Palmeira et al., 2020
[19] = system: SARS-CoV-2 in iPSC-derived alveolar epithelial type 2 cells (iAEC2s); conditions: ref Mirabelli et al., 2020, read-out: IC50 against SARS-CoV-2
[20] = system: Huh-7 cells; conditions: ref Mirabelli et al., 2020; read-out: CC50 (cell toxicity)
[21] = system: HIV; conditions: exposure to cocaine, by activating Sig-1R; ref Roth et al., 2005

## CCCCc1oc2ccccc2c1C(=O)c1cc(I)c(OCCN(CC)CC)c(I)c1 [Amiodarone]
[1]
  Antiviral activity: Virus: inhibit
[2]
  Antiviral activity: Virus: inhibit the spreading in vitro of SARS-CoV
[3]
  survival of infected mice: increased survival
[4]
  antiviral potency: below 1 µM
[5]; case report, off-label short therapy 5 days with supportive measures, ref Castaldo et al., 2020
  outcome of a patient with COVID-19-related respiratory failure: recovered
[6]
  case fatality rate compared with local historical data: decrease in case fatality rate
[7]
  viral inhibition: > 50%

## CN(C)CCC=C1c2ccccc2CCc2ccccc21 [Amitriptyline]
[8]
  IC50: 216 nM and 300 nM
  Ki: 287 nM
[9]
  alleviation of HCV-induced cytopathic effect (n4mBid cell viability relative to untreated cells): increase n4mBid cell viability; also recorded: inhibit the HCV-induced cytopathic effect
[10]
  viability of A549 cells infected with H5N1: increased viability
[11]
  infiltrating cell count: reduced
  lung edema and survival: improved
  lung injury: decreased

## CCN(CC)CCCC(C)Nc1ccnc2cc(Cl)ccc12 (centres unmarked) [Chloroquine]
[8]
  IC50: 2300 nM
  Ki: 109 nM
[2]
  Antiviral activity: Virus: inhibited the replication of SARS-CoV; also recorded: in vitro activity
[12]
  Antiviral activity: Virus: in vitro activity
[13]
  Antiviral activity: Virus: inhibition of the cytopathic effect
[14]
  Antiviral activity: Virus: inhibited the replication
[15]
  Antiviral activity: Virus: inhibited HCoV-OC43 replication
[3]
  survival of infected mice: increased survival
[16]
  survival: none of the tested doses increased survival
[17]
  HCoV-OC43-induced death in newborn mice: prevented HCoV-OC43-induced death
[5]; 2020
  decreasing the likelihood of death or speeding recovery: no benefit
[18]
  side effects: serious retinopathies and cardiopathies
[7]
  cellular toxicity: < 30%
  viral inhibition: > 50%

## Cc1cc(OCCN2CCOCC2)nn1-c1ccc2ccccc2c1 [E-52862 (S1RA)]
[4]
  antiviral potency: below 1 µM
[4]; ref Mirabelli et al., 2020, read-out: IC50 against SARS-CoV-2
  IC50: 222 nM
[19]
  IC50: 1000 nM
[20]
  CC50: > 5000 nM

## CCN(CCO)CCCC(C)Nc1ccnc2cc(Cl)ccc12 (centres unmarked) [Hydroxychloroquine]
[8]
  IC50: 2120 nM
[2]
  Antiviral activity: Virus: in vitro activity
[12]
  Antiviral activity: Virus: in vitro activity
[5]; first clinical studies, ref Geleris et al., 2020, Mitjà et al., Roustit et al.
  efficacy in COVID-19 patients: do not support efficacy
[5]; human, in vivo
  adverse drug reactions in patients with COVID-19: serious adverse drug reactions
[5]; 2020
  decreasing the likelihood of death or speeding recovery: no benefit
[18]
  side effects: serious retinopathies and cardiopathies

## CC(C(O)c1ccc(O)cc1)N1CCC(Cc2ccccc2)CC1 (centres unmarked) [Ifenprodil]
[8]
  IC50: 5.5 nM
[9]
  alleviation of HCV-induced cytopathic effect (n4mBid cell viability relative to untreated cells): increase n4mBid cell viability; also recorded: inhibit the HCV-induced cytopathic effect
[10]
  cell viability in vitro: increased cell viability
[11]
  leukocyte infiltration and lung injury: markedly decreased
  survival: improved survival

## CC[C@H]1OC(=O)[C@H](C)[C@@H](O[C@H]2C[C@@](C)(OC)[C@@H](O)[C@H](C)O2)[C@H](C)[C@@H](O[C@@H]2O[C@H](C)C[C@H](N(C)C)[C@H]2O)[C@](C)(O)C[C@@H](C)CN(C)[C@H](C)[C@@H](O)[C@]1(C)O [azithromycin]
[3]
  survival of infected mice: increased survival
[16]
  survival: none of the tested doses increased survival

## COC(=O)[C@H]1[C@@H](OC(=O)c2ccccc2)C[C@@H]2CC[C@H]1N2C [cocaine]
[21]
  HIV infection: enhance HIV infection
